Measured values: US9850542B2, “Gene signature to predict homologous recombination (HR) deficient cancer” (Board of Regents, The University of Texas System, priority 2013, dated 2017)

Assays:
[1] = system: HCC1937; experiment: Drug combination study by MTT assay (combination index, CompuSyn); type: cell-based, human
Protocol: Cell Proliferation Assay. Cell proliferation was measured by MTT (3-(4,5-dimethylthiazol-2-yl)-2,5-diphenyltetrazolium bromide; Sigma) reduction. To test the cell proliferation rate, 500-1×10^4 cells/well were seeded in a 96-well plate in a total volume of 100 μL in triplicate in each experiment. The next day, cells were treated with indicated concentrations of drugs. Five days later, 20 μL of MTT substrate (2 mg/mL) was added to each well and incubated with cells for 3 hr. Then the culture medium was removed, and 100 μL of dimethyl sulfoxide was added. Plates were read at 490 nm and 650 nm (background) in a microplate reader (Molecular Devices). After subtraction of background, the cell viability was calculated as fold change relative to control cells. The OD values were analyzed with Graphpad Prism 6.0 software. Each value is relative to the value in the cells treated with vehicle control. Results are shown as mean±SEM from three independent experiments.
Drug Combination Studies. […] CI<1 indicated synergism, and CI=1 and CI>1 indicated additive and antagonism, respectively.

[2] = system: MCF-10A cells; experiment: Colony formation assay in MCF-10A knockdown cell lines; type: cell-based, human
Protocol: FIGS. 3A-C. Loss of PTEN Reverses HRD and Confers PARP Inhibitor Resistance to BRCA1-Depleted Cells through Over-expression of TTK. (A) Modified HR repair assay was performed in MCF-10A cells by transfecting cells with DRGFP DSB substrate plasmid and I-SceI plasmid through electroporation, followed by analysis of GFP-positive cells by flow cytometry 48 to 72 hours later. Each value is relative to the percentage of GFP-positive cells in I-SceI-transfected control cells. Results are show as mean±SD from three independent experiments. Student's t-test was performed from results of three independent experiments. (B) Cells were seeded at a very low density and treated with indicated concentrations of olaparib for 10 to 15 days to allow colony formation. The rate of cell survival in response to olaparib was determined by colony formation assay. Each value was relative to control cells without treatment and represents the mean±SD from three independent experiments. […] (C) Quantitative analysis of HR repair assay in cells transfected with TTK plasmids or the indicated siRNAs. Each value is relative to the percentage of GFP-positive cells in I-SceI-transfected control cells. Results are shown as mean±SD from three independent experiments. […] BRCA1 SMARTpool siRNA was used as a positive control.
FIGS. 11A-B. The HRD Gene Signature Predicts HR-deficiency and Sensitivity to PARP Inhibitors in Cancer Cells. (A) Cells were seeded in a very low density and treated with indicated concentrations of PARP inhibitor olaparib for 10-15 days to allow colony formation. The rate of cell survival was determined by colony-formation assay. Colonies were stained with 0.25% crystal violet/25% methanol and counted both manually and digitally using ImageJ software. […]
Colony Forming Assay. […] Colonies were counted manually (colonies containing 50 or more cells were counted) or digitally using ImageJ software with customized parameters optimized based on three preliminary manual counts or blindly chosen. […]

[3] = system: BRCA-negative patients with advanced-stage triple-negative breast cancer; settings: 15 BRCA-negative patients, advanced-stage TNBC; cited from earlier work
[4] = system: cancer cell lines with and without the HRD gene signature; experiment: Colony formation and MTT assay in cancer cell lines with intact or defective HR; type: cell-based, human; settings: prostate, renal, lung, ovarian, breast cancer lines; colony formation, MTT
Protocol: FIGS. 2A-D. The HRD Gene Signature Predicts Sensitivity to PARP Inhibitors in Cancer Cells. (A) Cell lines with intact HR (I) and defective HR (D) were selected for five cancer types as follows: prostate cancer: PC-3 (D) and DU-145 (I); renal cancer: ACHN (D) and 7860-O (I); lung cancer: H266 (D) and H522 (I); ovarian cancer: OVCAR-3 (D) and OVCAR-8 (I); and breast cancer: MCF7 (D), MDA-MB-231 (I), and HCC1937 […]. Modified HR repair assay was performed by transfecting cells with DRGFP DSB substrate plasmid and I-SceI plasmid through electroporation at 270V, 975uF using a BioRad genepulsar II. Flow cytometry analysis was performed 48 to 72 hours later to detect GFP-positive cells. […] (B-D) Colony formation assay was performed with the indicated concentrations of olaparib (B) or rucaparib (C), or (D) cell lines were seeded in 96-well plates, treated with olaparib at the indicated concentrations for 5 days, and then analyzed by MTT assay. […]
Cell Proliferation Assay. Cell proliferation was measured by MTT (3-(4,5-dimethylthiazol-2-yl)-2,5-diphenyltetrazolium bromide; Sigma) reduction. […] Plates were read at 490 nm and 650 nm (background) in a microplate reader (Molecular Devices). After subtraction of background, the cell viability was calculated as fold change relative to control cells. The OD values were analyzed with Graphpad Prism 6.0 software. […]

[5] = system: BRCA mutation carriers; settings: phase I, oral monotherapy; cited from earlier work
[6] = system: BRCA1/2 mutation carriers with recurrent ovarian cancer; settings: phase II; cited from earlier work
[7] = system: breast cancer patients with BRCA1/2 mutations; settings: phase II; cited from earlier work
[8] = system: HCC1937 cells; experiment: Apoptosis analysis; type: cell-based, human; settings: olaparib plus TTK inhibitor, 48 hours
Protocol: FIGS. 14A-B. TTK inhibitor enhances apoptosis induced by PARP inhibitor. (A) TTK expression levels in basal-like or luminal breast cancer cell lines and immortal human mammalian epithelial cells. Cell lysates were harvested from indicated cell lines and subjected to Western blot analysis. (B) HCC1937 cells were treated with olaparib, or combined with TTK inhibitor AZ3146 for 48 hours and subjected to apoptosis analysis. Each value represents the mean±SD from three independent experiments.

CCNC(=O)c1noc(-c2cc(C(C)C)c(O)cc2O)c1-c1ccc(CN2CCOCC2)cc1 [AUY922]
synergistic effect on PARP inhibitor treatment ([1]; MTT): synergistic effect | synergy compared with vorinostat combinations ([1]; combinations with PARP inhibitors): relatively higher synergy

O=C(c1cc(Cc2n[nH]c(=O)c3ccccc23)ccc1F)N1CCN(C(=O)C2CC2)CC1 [olaparib]
sensitization by BRCA1-PTEN double knockdown ([2]; MCF-10A double knockdown cells): did not sensitize cells | cellular sensitivity of BRCA1-, RAD51- and BRIT1-deficient cells ([2]; MCF-10A knockdown vs control cells, 10-15 days): greatly increased cellular sensitivity | sensitization by BRCA1 or PTEN deficiency ([2]; MCF-10A single knockdown cells): sensitized cells | complete or partial responses [3]: no complete or partial responses | sensitivity of cell lines with the HRD gene signature compared with cell lines with intact HR repair [4]: more sensitive | BRCA mutation carriers that did not respond [5]: more than 35% | objective response rate [6]: 33% | response rate [7]: 41%

CNCc1ccc(-c2[nH]c3cc(F)cc4c3c2CCNC4=O)cc1 [rucaparib]
sensitivity of cell lines with the HRD gene signature compared with cell lines with intact HR repair [4]: more sensitive

AZ3146
apoptosis [8]: enhanced olaparib-induced apoptosis
